From ChEMBL document CHEMBL3870340, “Cytotoxic activity, apoptosis induction and structure-activity relationship of 8-OR-2-aryl-3,4-dihydroisoquinolin-2-ium salts as promising anticancer agents” (Bioorg Med Chem Lett, 2017)
Activity calls are given as the source filed them. No cut-off for these calls is given here.

Assays:
MKN-45 [1] = assay: Induction of morphological changes in human MKN45 cells assessed as change in cytomembrane permeability at 0.41 uM after 48 hrs by acridine orange/ethidium bromide staining based fluorescence microscopy; format: functional, cell-based
MKN-45 [2] = assay: Induction of morphological changes in human MKN45 cells assessed as condensation of cell nuclei and chromatins at 0.41 uM after 48 hrs by acridine orange/ethidium bromide staining based fluorescence microscopy; format: functional
[3] = Antiproliferative activity against human NB4 cells at 5 uM after 48 hrs by MTT assay relative to control; format: functional; settings: NB-4, 48 h, read-out: GI
[4] = Cytotoxicity against human MKN45 cells assessed as decrease in cell viability after 48 hrs by MTT assay; format: functional, cell-based; settings: MKN-45, 48 h
[5] = Antiproliferative activity against human MKN45 cells at 20 uM after 48 hrs by MTT assay relative to control; format: functional; settings: MKN-45, 48 h, read-out: GI
MKN-45 [6] = assay: Induction of apoptosis in human MKN45 cells assessed as necrotic cells at 2.03 uM after 48 hrs by annexin V/PI double staining based flow cytometry (reference value: 0.1%); format: functional
NB-4 [7] = assay: Induction of apoptosis in human NB4 cells after 48 hrs by annexin V/PI double staining based flow cytometry; format: functional, cell-based
MKN-45 [8] = assay: Induction of apoptosis in human MKN45 cells assessed as viable cells at 10.1 uM after 48 hrs by annexin V/PI double staining based flow cytometry (reference value: 99.8%); format: functional; settings: MKN-45, 48 h, read-out: Activity
NB-4 [9] = assay: Induction of apoptosis in human NB4 cells assessed as viable cells at 11.5 uM after 48 hrs by annexin V/PI double staining based flow cytometry (reference value: 96.4%); format: functional; settings: NB-4, 48 h, read-out: Activity
NB-4 [10] = assay: Induction of apoptosis in human NB4 cells assessed as necrotic cells at 2.30 uM after 48 hrs by annexin V/PI double staining based flow cytometry (reference value: 0.6%); format: functional
NB-4 [11] = assay: Induction of apoptosis in human NB4 cells assessed as necrotic cells at 11.5 uM after 48 hrs by annexin V/PI double staining based flow cytometry (reference value: 0.6%); format: functional
MKN-45 [12] = assay: Induction of morphological changes in human MKN45 cells assessed as cell shrinkage at 0.41 uM after 48 hrs by acridine orange/ethidium bromide staining based fluorescence microscopy; format: functional
MKN-45 [13] = assay: Induction of morphological changes in human MKN45 cells assessed as pyknosis in early apoptotic events at 0.41 uM after 48 hrs by acridine orange/ethidium bromide staining based fluorescence microscopy; format: functional, cell-based
NB-4 [14] = assay: Induction of apoptosis in human NB4 cells assessed as late apoptotic cells at 11.5 uM after 48 hrs by annexin V/PI double staining based flow cytometry (reference value: 0.7%); format: functional
MKN-45 [15] = assay: Induction of morphological changes in human MKN45 cells assessed as apoptotic cells at 2.03 uM after 48 hrs by acridine orange/ethidium bromide staining based fluorescence microscopy; format: functional, cell-based
MKN-45 [16] = assay: Induction of morphological changes in human MKN45 cells assessed as late apoptotic cells at 10.1 uM after 48 hrs by acridine orange/ethidium bromide staining based fluorescence microscopy; format: functional, cell-based
MKN-45 [17] = assay: Induction of apoptosis in human MKN45 cells assessed as early apoptotic cells at 10.1 uM after 48 hrs by annexin V/PI double staining based flow cytometry (reference value: 0.1%); format: functional
MKN-45 [18] = assay: Induction of apoptosis in human MKN45 cells assessed as necrotic cells at 10.1 uM after 48 hrs by annexin V/PI double staining based flow cytometry (reference value: 0.1%); format: functional
NB-4 [19] = assay: Induction of morphological changes in human NB4 cells assessed as apoptotic features at 0.46 to 11.5 uM after 48 hrs by acridine orange/ethidium bromide staining based fluorescence microscopy; format: functional, cell-based
NB-4 [20] = assay: Induction of apoptosis in human NB4 cells assessed as early apoptotic cells at 11.5 uM after 48 hrs by annexin V/PI double staining based flow cytometry (reference value: 2.3%); format: functional
MKN-45 [21] = assay: Induction of apoptosis in human MKN45 cells assessed as late apoptotic cells at 2.03 uM after 48 hrs by annexin V/PI double staining based flow cytometry (reference value: 0%); format: functional
NB-4 [22] = assay: Induction of apoptosis in human NB4 cells assessed as viable cells at 2.30 uM after 48 hrs by annexin V/PI double staining based flow cytometry (reference value: 96.4%); format: functional; settings: NB-4, 48 h, read-out: Activity
[23] = Cytotoxicity against primary goat fetal fibroblast assessed as decrease in cell viability after 48 hrs by MTT assay; format: toxicity; settings: goat (Capra hircus), primary goat fetal fibroblasts
MKN-45 [24] = assay: Induction of apoptosis in human MKN45 cells after 48 hrs by acridine orange/ethidium bromide staining based fluorescence microscopy; format: functional, cell-based
MKN-45 [25] = assay: Induction of apoptosis in human MKN45 cells assessed as viable cells at 2.03 uM after 48 hrs by annexin V/PI double staining based flow cytometry (reference value: 99.8%); format: functional; settings: MKN-45, 48 h, read-out: Activity
[26] = Cytotoxicity against human NB4 cells assessed as decrease in cell viability after 48 hrs by MTT assay; format: functional, cell-based; settings: NB-4, 48 h
[27] = Cytotoxicity against primary porcine fetal kidney cells assessed as decrease in cell viability after 48 hrs by MTT assay; format: toxicity, cell-based; settings: pig (Sus scrofa)
MKN-45 [28] = assay: Induction of apoptosis in human MKN45 cells assessed as late apoptotic cells at 10.1 uM after 48 hrs by annexin V/PI double staining based flow cytometry (reference value: 0%); format: functional
MKN-45 [29] = assay: Induction of apoptosis in human MKN45 cells assessed as early apoptotic cells at 2.03 uM after 48 hrs by annexin V/PI double staining based flow cytometry (reference value: 0.1%); format: functional
NB-4 [30] = assay: Induction of apoptosis in human NB4 cells assessed as late apoptotic cells at 2.30 uM after 48 hrs by annexin V/PI double staining based flow cytometry (reference value: 0.7%); format: functional
NB-4 [31] = assay: Induction of apoptosis in human NB4 cells assessed as early apoptotic cells at 2.30 uM after 48 hrs by annexin V/PI double staining based flow cytometry (reference value: 2.3%); format: functional
MKN-45 [32] = assay: Induction of apoptosis in human MKN45 cells after 48 hrs by annexin V/PI double staining based flow cytometry; format: functional, cell-based

With `COc1cccc2c1C=[N+](c1ccccc1I)CC2.[Br-]` the Activity (MKN-45 [1]) was “Active”, the Activity (MKN-45 [2]) was “Active” and the inhibition of growth at 5 µM [3] was 49.7%. The IC50 [4] was 2030 nM, the inhibition of growth at 20 µM [5] was 90.9% and the Activity (MKN-45 [6]) was 0.4%. For the same molecule, the Activity (NB-4 [7]) was “Dose-dependent effect”, the viability at 10.1 µM (MKN-45 [8]) was 46% and the viability at 11.5 µM (NB-4 [9]) was 77.9%. The Activity (NB-4 [10]) was 0%, the Activity (NB-4 [11]) was 0.3% and the Activity (MKN-45 [12]) was “Active”. For the same molecule, the Activity (MKN-45 [13]) was “Active”, the Activity (NB-4 [14]) was 7.1% and the Activity (MKN-45 [15]) was “Active”. The Activity (MKN-45 [16]) was “Active”, the Activity (MKN-45 [17]) was 20.1% and the Activity (MKN-45 [18]) was 1.9%. For the same molecule, the Activity (NB-4 [19]) was “Active”, the Activity (NB-4 [20]) was 14.7% and the Activity (MKN-45 [21]) was 4.6%. For the same molecule, the viability at 2.3 µM (NB-4 [22]) was 90.1%, the IC50 at 48 h [23] was 3510 nM and the Activity (MKN-45 [24]) was “Dose-dependent effect”. It also gave a viability at 2.03 µM (MKN-45 [25]) of 82.2%, an IC50 [26] of 2300 nM and an IC50 at 48 h [27] of 2410 nM. It also gave an Activity (MKN-45 [28]) of 32%, an Activity (MKN-45 [29]) of 12.8% and an Activity (NB-4 [30]) of 2.2%. For the same molecule, the Activity (NB-4 [31]) was 7.7% and the Activity (MKN-45 [32]) was “Dose-dependent effect”.
